{
  "source": "patent US11254720B2",
  "about": "“Methods and systems for designing and/or characterizing soluble lipidated ligand agents” (Tufts Medical Center, priority 2013, dated 2022)",
  "key": {"mouse CMKLR1 [1]": {"molecular_target": "T1, mouse CMKLR1 (Mus musculus, UniProt P97468)", "T1 sequence (P97468 1-371)": "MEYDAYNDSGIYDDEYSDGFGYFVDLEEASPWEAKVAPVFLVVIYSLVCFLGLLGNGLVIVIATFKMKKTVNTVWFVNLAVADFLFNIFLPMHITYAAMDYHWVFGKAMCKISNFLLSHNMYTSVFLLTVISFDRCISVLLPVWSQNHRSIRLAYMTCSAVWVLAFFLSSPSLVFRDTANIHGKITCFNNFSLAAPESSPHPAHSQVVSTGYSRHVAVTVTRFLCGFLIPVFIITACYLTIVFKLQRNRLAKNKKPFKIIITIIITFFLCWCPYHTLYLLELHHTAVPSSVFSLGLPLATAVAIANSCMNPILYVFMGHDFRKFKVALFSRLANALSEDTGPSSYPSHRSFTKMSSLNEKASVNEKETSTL", "assay": "Washout experiments (serial washes after 15 min ligand, luciferase readout)", "protocol": "(§1) Agonist activity was compared with and without serial washings shortly after addition of ligand. Briefly, HEK293 cells were plated and transfected as described above with the addition of a poly-L-lysine plate pretreatment step to enhance cell adhesion. Twenty-four hours after transfection, cells were stimulated with increasing concentrations of agonist for 15 minutes at 37° C. Selected wells were washed three times with serum-free media. Plates were then incubated for an additional 4 hours. Receptor mediated signaling was assessed using a luciferase based assay as described above.\n(§2) HEK293 cells were transiently transfected with cDNAs encoding i) human or mouse CMKLR1, ii) a SRE5x-Luc reporter gene, iii) a Gαq5i66V chimera, and iv) a β-galactosidase control. Twenty-four hours after transfection, cells were stimulated with increasing concentrations of various ligands for 15 minutes. Selected wells were then washed three times with serum-free media and plates were further incubated for 4 hours."}, "human CMKLR1 [2]": {"molecular_target": "T2, human CMKLR1 (Homo sapiens, UniProt Q99788)", "T2 sequence (Q99788 1-373)": "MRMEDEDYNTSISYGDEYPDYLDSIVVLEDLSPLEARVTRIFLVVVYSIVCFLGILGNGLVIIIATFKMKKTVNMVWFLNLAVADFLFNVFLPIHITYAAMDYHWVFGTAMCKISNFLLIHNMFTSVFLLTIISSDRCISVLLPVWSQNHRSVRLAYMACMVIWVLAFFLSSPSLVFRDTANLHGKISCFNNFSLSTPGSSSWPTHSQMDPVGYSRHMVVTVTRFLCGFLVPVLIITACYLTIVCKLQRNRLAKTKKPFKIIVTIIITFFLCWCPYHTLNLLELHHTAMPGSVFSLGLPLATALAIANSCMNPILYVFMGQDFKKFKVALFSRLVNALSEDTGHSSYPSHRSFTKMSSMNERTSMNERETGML", "assay": "SRE-luciferase reporter gene assay in transfected HEK293 cells", "settings": "pEC50, Human CMKLR1, no wash; mean ± S.E.M.", "protocol": "(§3) Receptor-mediated signaling was assessed as previously described. Briefly, HEK293 cells were plated at a density of 6,000 cells/well into 96-well clear-bottom plates and grown to ˜80% confluence. […] Expression of Gq5i66V directs signaling of the Gαi-coupled chemerin receptor to stimulation of a Gαq-dependent SRE5x-Luc-PEST reporter gene. For experiments investigating the agonist function of soluble and lipidated peptides, tethered ligand cDNA was not included in the transfection mixture. Twenty four hours after transfection, cells were stimulated with or without peptide agonist for 4 hours in serum-free medium. […] Following ligand stimulation, the media was aspirated and luciferase activity measured using SteadyLite reagent and quantified using a TopCount NTX. A β-galactosidase assay was then performed following assessment of luminescence. Cleavage of 2-nitrophenyl β-D-galactopyranoside substrate was quantified after incubation of cell lysates at 37° C. for 30 to 60 minutes by measuring the optical density at 420 nm on a SpectraMax microplate reader. Luciferase reporter gene activities were normalized to corresponding β-galactosidase activity controls.\n(§4) HEK293 cells were transiently transfected with cDNAs encoding i) human or mouse CMKLR1, ii) a SRE5x-Luc reporter gene, iii) a Gαq5i66V chimera, and iv) a β-galactosidase control. Twenty-four hours after transfection, cells were stimulated with ligand for 4 hours and luciferase activity determined as described in Experimental Procedures. Luciferase activity was normalized relative to the maximal value observed using saturating concentrations of the corresponding soluble ligand (=100%). […] As a next step, the effect of membrane anchoring on chemerin activity was examined. […] HEK293 cells were transiently transfected with cDNAs encoding i) various tethered ligands, ii) human or mouse CMKLR1, iii) a SRE5x-Luc reporter gene, iv) aGαq5i66V chimera, and v) a β-galactosidase control. Twenty-four hours after transfection, luciferase activity was determined as described in Experimental Procedures.\n(§5) HEK293 cells were transiently transfected with cDNAs encoding i) 8 ng of various tethered ligands, ii) human or mouse CMKLR1, iii) a SRE5x-Luc reporter gene, iv) a Gαq5i66V chimera, and v) a β-galactosidase control. Twenty-four hours after transfection, luciferase activity was determined as described in Experimental Procedures."}, "Male FVB mice": {"tested_on": "Male FVB mice", "assay": "Ovalbumin sensitization and aerosol challenge model of allergic airway inflammation", "type": "in vivo, mouse", "settings": "Day 18", "source_text": "Representative photographs are taken at 20× magnification. (C) Lung tissue sections at Day 18 were obtained from fixed, paraffin-embedded lung tissue stained with hematoxylin and eosin. Representative photographs are taken at both 20× and 40×. (D) Total BALF cells and leukocyte subsets were quantified on Day 18 and compared between mice receiving DMSO or l-Stable Chem. Data are representative of the mean±S.E.M. from n=3-8 mice per group. Comparison of DMSO control to l-Stable Chem: *p<0.05.\nMale FVB mice age 5-7 weeks (Charles River Laboratories) were housed under viral antibody-free conditions. Ovalbumin (OVA) sensitization and drug administration were performed as previously described with slight modifications. Briefly, mice were sensitized with intraperitoneal injection of 10 μg OVA (Grade III: Sigma) on days 0 and 7. On days 14, 15, 16, and 17, mice received a 25 minute aerosol challenge of 6% (wt/vol) OVA each day. On each of these days, 30 min prior to OVA challenge, mice were given 20 μL of lipidated stable chemerin (21 mM stock in DMSO diluted 1:100 in saline for a final concentration of 210 μM) by the intranasal route. Corresponding controls received DMSO diluted 1:100 in saline. On day 18 or 22, bronchoalveolar lavage fluid (BALF) was collected; animals were sacrificed for histological assessment. […] Cells in BALF were resuspended in PBS and counted with a hemocytometer; cytospins were done via cytocentrifugation (265 g; StatSpin). Cells from the cytospin were stained with Wright-Giemsa stain (Sigma) for quantification of leukocyte subsets. At least 200 cells were counted per slide. […] On the 5th day (corresponding to day 18), mice were sacrificed and BALF collected and analyzed as described above.\nGiven the high potency, stability, and wash resistance of the lipidated stable chemerin analog, the anti-inflammatory activity of this compound in vivo was examined. […] Markers of inflammation were assessed at day 18 (time course: FIG. 6A)."}, "human CMKLR1 [3]": {"molecular_target": "T2, human CMKLR1", "assay": "Washout experiments (serial washes after 15 min ligand, luciferase readout)", "protocol": "as §1, §2"}, "[4]": {"tested_on": "HEK293 cells transfected with vector control (pcDNA1.1)", "assay": "Luciferase reporter assay in cells transfected with vector control", "type": "cell-based, human", "settings": "cells transfected with pcDNA1.1 vector control", "protocol": "as §3"}, "mouse CMKLR1 [5]": {"molecular_target": "T1, mouse CMKLR1", "assay": "SRE-luciferase reporter gene assay in transfected HEK293 cells", "protocol": "as §3, §4, §5"}, "Adult CD1 mice": {"tested_on": "Adult CD1 mice", "assay": "Chronic constriction injury neuropathic pain model, von Frey and acetone tests", "type": "in vivo, mouse", "settings": "intrathecal 100 pmol, 1 week after nerve injury", "source_text": "Intrathecal injection of 1-stable chem (100 pmol), 1 week after CCI, reduces CCI-induced mechanical hypersensitivity (panels A+C) and cold allodynia (panel E). Intrathecal injection of ResolvinE1 (RvE1)(100 pmol), 1 week after CCI, reduces CCI-induced mechanical hypersensitivity (panels B+D) and cold allodynia (panel F). BL=baseline before surgery.\nAdult CD1 mice (male, 25-35 g) were used for behavioral studies. Mice were group-housed and kept under a 12-hour light/dark cycle. […]\nNerve injury-induced mechanical allodynia and hypersensitivity were assessed by von Frey hairs as previously described (see Xu et al., Resolvin E1 inhibits neuropathic pain and spinal cord microglial activation following peripheral nerve injury, 2013, J. Neuroimmune Pharmacol, 8: 37-41). […] The 50% paw withdrawal threshold (PWT) was determined using Dixon's up-down method. For paw withdrawal frequency (PWF), the same von Frey hair (0.16 g) was applied 10 times and the number of positive responses to the stimulations counted. A positive response was scored if the mouse sharply withdrew the paw or flinched upon removal of the stimulus. […] In brief, a drop of acetone was placed against the plantar paw of the mouse and the mouse's response monitored for the next 20 seconds. […]"}, "[6]": {"settings": "three washes after 15 min ligand"}},
  "note": "pEC50: −log10 of the molar value. Non-standard residues stand in square brackets, D forms with d. Residues, ends and D or L forms follow the SMILES beside them. *: point of attachment. PEG8 = NCCOCCOCCOCCOCCOCCOCCOCCOCCC(=O)O; Palmitoyl = CCCCCCCCCCCCCCCC(=O)*; Tic = O=C(O)[C@@H]1Cc2ccccc2CN1",
  "data": [
    {"smiles": "CCCCCCCCCCCCCCCC(=O)NCCOCCOCCOCCOCCOCCOCCOCCOCCC(=O)NCC(=O)NCC(=O)N[C@H](Cc1ccc(O)cc1)C(=O)N[C@@H](Cc1ccccc1)C(=O)N[C@@H](CC(C)C)C(=O)N1CCC[C@H]1C(=O)N[C@H](CO)C(=O)N[C@@H](CCC(N)=O)C(=O)N[C@@H](Cc1ccccc1)C(=O)N[C@H](C)C(=O)N1Cc2ccccc2C[C@H]1C(=O)N[C@@H](CO)C(=O)O", "note": "[I-Stable Chem] ({Palmitoyl-PEG8}-GG[dY]FLP[dS]QF[dA][Tic]S-OH)", "values": [
      {"measurement": "pEC50", "setting": "mouse CMKLR1 [1]; pEC50, Mouse CMKLR1, + wash, washed three times after 15 min ligand, then 4 hours", "value": 7.96},
      {"measurement": "Agonist activity after serial washes, mouse CMKLR1", "setting": "mouse CMKLR1 [1]; [6]", "value": "persisted despite washing"},
      {"measurement": "pEC50", "setting": "human CMKLR1 [2]", "value": 8.59},
      {"measurement": "Lung inflammatory response (H+E staining)", "setting": "Male FVB mice; in comparison to DMSO controls", "value": "Less leukocyte infiltration and fewer reactive bronchial epithelial cells"},
      {"measurement": "Number of eosinophils in bronchoalveolar lavage fluid", "setting": "Male FVB mice; intranasal, 30 min prior to OVA challenge, versus DMSO", "value": "decreased"},
      {"measurement": "Airway epithelial mucus (PAS staining)", "setting": "Male FVB mice; versus DMSO control", "value": "most pronounced attenuation of mucus metaplasia"},
      {"measurement": "pEC50", "setting": "human CMKLR1 [3]; pEC50, Human CMKLR1, + wash, washed three times after 15 min ligand, then 4 hours", "value": 7.60},
      {"measurement": "Agonist activity after serial washes, human CMKLR1", "setting": "human CMKLR1 [3]; [6]", "value": "persisted despite washing"},
      {"measurement": "Agonist activity without CMKLR1 expression", "setting": "[4]", "value": "no agonist activity"},
      {"measurement": "EC50", "setting": "mouse CMKLR1 [5]; EC50 (nM), Mouse CMKLR1, no wash, HEK293 luciferase reporter", "value": 2, "unit": "nM"},
      {"measurement": "pEC50", "setting": "mouse CMKLR1 [5]; pEC50, Mouse CMKLR1, no wash, mean ± S.E.M.", "value": 8.70},
      {"measurement": "Duration of significant reduction of established mechanical and cold allodynia", "setting": "Adult CD1 mice", "value": "greater than 24 hours"}
    ]}
  ]
}
